Format in all cases: ADME, organism-based
What all share (design): dose 30 mg/kg, route oral

Data set [1] in a line: AUC (0 to time) in mouse at 30 mg/kg, po. Conditions: plasma.
Data set [2] is described as follows: Cmax in mouse at 30 mg/kg, po. The settings on record: in vivo.
A short description of data set [3]: Half life in mouse at 30 mg/kg, po. The settings on record: in vivo.

Broadly, the AUC is the area under the concentration-time curve, a measure of exposure. As usually defined, the Cmax is the highest concentration seen after dosing. The term half-life denotes how long it takes for the measured level to halve. A lower half-life goes with rapid decline.

In data set [1], `CN(C(=O)C(c1ccccc1)c1ccccc1)[C@H](CN1CC[C@H](O)C1)c1ccccc1` [ASIMADOLINE] gave an AUC of 0.493 µg·h/mL. In data set [2], this molecule registered a Cmax of 0.507 µg/mL. The molecule also had a half-life in data set [3] of 30 min.
